Data on 14 molecules can be found in patent US6080755A, “1,9-diazabicyclo[4.3.0]nona-3,8-diene derivatives” (Wyeth Lederle Japan, Ltd., priority 1995, dated 2000).

This test concerns Isolated Rat Hearts. In words: Cardioprotective Effect in Ischemia/Reperfusion Model of Isolated Rat Hearts. As to conditions: 10^-5 mol of test compound in 0.04% DMSO; 25 min global ischemia, after reperfusion for 30 minutes. The arrangement: species or system Male Sprague-Dawley rats. The procedure:
Cardioprotective Effect in Ischemia/Reperfusion Model of Isolated Rat Hearts:
Male Sprague-Dawley rats (300-500 g) were used. The rats were anesthetized using 40 mg/kg of sodium pentobarbital (i.p.) after treating with heparin (i.v. 1000 U/kg). The hearts were excised and moved quickly to a Langendorlf apparatus where they were perfused with Krebs-Henseleit bicarbonate buffer (118 mM of NaCl; 4.7 mM of KCl; 2.55 mM of CaCl2; 1.18 mM of KH2 PO4; 24.88 mM of NaHCO3; 11.1 mM of glucose) bubbled with mixture gas of 95% oxygen and 5% carbon dioxide at a constant perfusion pressure (75 mmHg). The parameters of cardiac function were determined as follows.
The physiological saline-filled latex balloon was inserted into the left ventricle and connected to a pressure transducer for measurement of left ventricular pressure (LVP). The volume of the balloon was adjusted to produce an LV end-diastolic pressure at 5-10 mmHg. The heart rate was determined with a tachometer and coronary flow was determined with an extra-corporeal electromagnetic flow tube.
For the equilibration, the hearts were perfused for initial 15-20 minutes. Then, treatment with the test compounds was begun 15 minutes before the onset of ischemia. Global ischemia was initiated by shutting off the perfusate flow and this was maintained for 25 minutes. The hearts were submerged in 37° C. buffer during ischemia. Reperfusion was then begun with the test compounds and the hearts were allowed to recover for 30 minutes. The cardiac function was measured before the treatment of the test compounds, before ischemia and after reperfusion. The hearts were treated with 10^-5 mol of the test compounds dissolved in 0.04% of dimethylsulfoxide (DMSO), in comparison with the vehicle, i.e., 0.04% of DMSO alone, in the perfusate.
The cardioprotective effects of the test compounds were evaluated on the basis of the extent of recovery of LVP after reperfusion for 30 minutes.
Regarding “6,8-Diethoxycarbonyl-3(or 4)-methy-1,9-diazabicyclo [4.3.0]nona-3,8-dien-7-ol [Compound No. 35]”, the “LVDP(%): recovery of LVP, left ventricular developed pressure against the LVP before ischemia as 100%” value (“LVDP(%): recovery of LVP” for short) is reported as 50.6%.

For `CCOC(=O)C1=NN2CC(C)=C(C)CC2(C(=O)OCC)C1O` (centres unmarked) [Compound No. 29, 6,8-Diethoxycarbonyl-3,4-dimethylbicyclo[4.3.0]-1,9-diazanona-3,8-dien-7-ol], the “LVDP(%): recovery of LVP” value is recorded as 44.2%. On to `COC(=O)C1=NN2C(c3ccccc3)C=CC(c3ccccc3)C2(C(=O)OC)C1O` (centres unmarked) [Compound No. 31, 6,8-Dimethoxycarbonyl-2,5-diphenyl-1,9-diazabicyclo [4.3.0]nona-3,8-dien-7-ol], for which the “LVDP(%): recovery of LVP” value is recorded as 85.1%. The same measure for `COC(=O)C1=NN2C(c3cccc([N+](=O)[O-])c3)C=CC(c3cccc([N+](=O)[O-])c3)C2(C(=O)OC)C1O` (centres unmarked) [Compound No. 48, 6,8-Dimethoxycarbonyl-2,5-bis(3-nitrophenyl)-7-hydroxy-1,9-diazabicyclo[4.3.0]nona-3,8-diene]: 72.4%; for `COC(=O)C1=NN2C(c3ccc(C#N)cc3)C=CC(c3ccc(C#N)cc3)C2(C(=O)OC)C1O` (centres unmarked) [Compound No. 50, 6,8-Dimethoxycarbonyl-2,5-di(4-cyano)phenyl-7-hydroxy-1,9-diazabicyclo[4.3.0]nona-3,8-diene]: 69.8%. Regarding `COC(=O)C1=NN2C(c3ccc(C(C)=O)cc3)C=CC(c3ccc(C(C)=O)cc3)C2(C(=O)OC)C1O` (centres unmarked) [Compound No. 51, 2,5-Bis-(4-acetylphenyl)-6,8-dimethoxycarbonyl-7-hydroxy-1,9-diazabicyclo[4.3.0]nona-3,8-diene], the “LVDP(%): recovery of LVP” value was found to be 55.0%. The same measure for `COC(=O)C1=NN2C(c3ccc(C)cc3)C=CC(c3ccc(C)cc3)C2(C(=O)OC)C1O` (centres unmarked) [Compound No. 52, 6,8-Dimethoxycarbonyl-2,5-di-p-tolyl-7-hydroxy-1,9-diazabicyclo[4.3.0]nona-3,8-diene]: 49.3%; for `COC(=O)C1=NN2C(c3ccc([N+](=O)[O-])cc3)C=CC(c3ccc([N+](=O)[O-])cc3)C2(C(=O)OC)C1O` (centres unmarked) [Compound No. 53, 6,8-Dimethoxycarbonyl-2,5-di(4-nitro)phenyl-7-hydroxy-1,9-diazabicyclo[4.3.0]nona-3,8-diene]: 60.0%.

For `CCOC(=O)C1=NN2CC(C)=C(C)CC2(C(=O)OCC)C1N` (centres unmarked) [Compound No. 81, 7-Amino-6,8-diethoxycarbonyl-3,4-dimethyl-1,9-diazabicyclo[4.3.0]nona-3,8-diene], the “LVDP(%): recovery of LVP” value is given as 56.2%.

For `CCOC(=O)C1=NN2CC(C)=C(C)CC2(C(=O)OCC)C1S` (centres unmarked) [Compound No. 82, 6,8-Diethoxycarbonyl-3,4-dimethyl-7-mercapto-1,9-diazabicyclo[4.3.0]nona-3,8-diene], the “LVDP(%): recovery of LVP” value is given as 61.5%. `COC(=O)C1=NN2C(c3ccccc3)C=CC(c3ccccc3)C2(C(=O)OC)C1N` (centres unmarked) [Compound No. 94, 7-Amino-6,8-dimethoxycarbonyl-2,5-diphenyl-1,9-diazabicyclo[4.3.0]nona-3,8-diene]: the “LVDP(%): recovery of LVP” value is listed as 73.5%. `CCCOC(=O)C1=NN2CC(C)=C(C)CC2(C(=O)OCCC)C1O` (centres unmarked) [Compound No. 124, 3,4-Dimethyl-6,8-dipropoxycarbonyl-7-hydroxy-1,9-diazabicyclo[4.3.0]nona-3,8-diene]: the “LVDP(%): recovery of LVP” value was found to be 84.0%. Regarding `CCCOC(=O)C1=NN2C(c3ccccc3)C=CC(c3ccccc3)C2(C(=O)OCC)C1O` (centres unmarked) [Compound No. 139, 2,5-Diphenyl-6-ethoxycarbonyl-7-hydroxy-8-propoxycarbonyl-1,9-diazabicyclo[4.3.0]nona-3,8-diene], the “LVDP(%): recovery of LVP” value was determined as 62.5%. With `CCN(CC)C(=O)C1=NN2C(c3ccccc3)C=CC(c3ccccc3)C2(C(=O)OC)C1O` (centres unmarked) [Compound No. 173, 8-Diethylcarbamoyl-2,5-diphenyl-7-hydroxy-6-methoxycarbonyl-1,9-diazabicyclo[4.3.0]nona-3,8-diene], the “LVDP(%): recovery of LVP” value turned out to be 61.0%.
